In brackets after ≈: the same amount, converted by molar mass.
molecular target: Heat shock protein HSP 90-alpha (Homo sapiens, UniProt P07900); assay: Displacement of FITC-geldanamycin from N-terminal HSP90alpha (unknown origin) after 30 mins by fluorescence polarization competitive binding assay; settings: not given

| SMILES | IC50 |
| --- | --- |
| Cc1ncc2c(n1)CCN(C(=O)c1cc(C(C)C)c(O)cc1O)C2 | 26 nM |
| CCCNc1nc(OCCOC)nc2c1CN(C(=O)c1cc(C(C)C)c(O)cc1O)CC2 | 32 nM |
| COc1ncc2c(n1)CCN(C(=O)c1cc(C(C)C)c(O)cc1O)C2 | 75 nM |
| CC(C)c1cc(C(=O)N2CCc3nc(OCCN(C)C)ncc3C2)c(O)cc1O | 30 nM |
| Cc1ncc2c(n1)CN(C(=O)c1cc(Br)c(O)cc1O)C2 | 262 nM |
| COCCOc1nc2c(c(OC(C)C)n1)CN(C(=O)c1cc(C(C)C)c(O)cc1O)CC2 | 58 nM |
| CC(C)c1cc(C(=O)N2CCc3nc(OC4CCN(C)CC4)ncc3C2)c(O)cc1O | 76 nM |
| CC(C)c1cc(C(=O)N2CCc3nc(OCCN4CCOCC4)ncc3C2)c(O)cc1O | 28 nM |
| CC(=O)N1CCN(c2ncc3c(n2)CCN(C(=O)c2cc(C(C)C)c(O)cc2O)C3)CC1 | 270 nM |
| COCCOc1nc2c(c(OC)n1)CN(C(=O)c1cc(C(C)C)c(O)cc1O)CC2 | 30 nM |
| CC(C)c1cc(C(=O)N2CCc3nc(OCCN4CCCCC4)ncc3C2)c(O)cc1O | 30 nM |
| Cc1ncc2c(n1)CN(C(=O)c1cc(C(C)C)c(O)cc1O)C2 | 38 nM |
| CC(C)c1cc(C(=O)N2CCc3nc(N(C)C)ncc3C2)c(O)cc1O | 164 nM |
| CC(C)Oc1ncc2c(n1)CCN(C(=O)c1cc(C(C)C)c(O)cc1O)C2 | 65 nM |
| CC(C)c1cc(C(=O)N2CCc3nc(N4CCCC4)ncc3C2)c(O)cc1O | 113 nM |
| Cc1ncc2c(n1)CN(C(=O)c1cc(Cl)c(O)cc1O)C2 | 474 nM |
| CNc1nc(OCCOC)nc2c1CN(C(=O)c1cc(C(C)C)c(O)cc1O)CC2 | 17 nM |
| CC(C)COc1ncc2c(n1)CCN(C(=O)c1cc(C(C)C)c(O)cc1O)C2 | 65 nM |
| CCCNc1ncc2c(n1)CCN(C(=O)c1cc(C(C)C)c(O)cc1O)C2 | 238 nM |

system: not listed separately; assay: Distribution coefficient, logD of compound at pH 7.4; type: physicochemical; settings: octanol/water

| SMILES | logD |
| --- | --- |
| CCCNc1nc(OCCOC)nc2c1CN(C(=O)c1cc(C(C)C)c(O)cc1O)CC2 | 2.92 |
| CC(C)c1cc(C(=O)N2CCc3nc(OCCN(C)C)ncc3C2)c(O)cc1O | 1.04 |
| COCCOc1nc2c(c(OC(C)C)n1)CN(C(=O)c1cc(C(C)C)c(O)cc1O)CC2 | 3.84 |
| CC(C)c1cc(C(=O)N2CCc3nc(OCCN4CCOCC4)ncc3C2)c(O)cc1O | 1.48 |
| COCCOc1nc2c(c(OC)n1)CN(C(=O)c1cc(C(C)C)c(O)cc1O)CC2 | 2.56 |
| CC(C)c1cc(C(=O)N2CCc3nc(OCCN4CCCCC4)ncc3C2)c(O)cc1O | 1.21 |
| CNc1nc(OCCOC)nc2c1CN(C(=O)c1cc(C(C)C)c(O)cc1O)CC2 | 2.21 |

system: not listed separately; assay: Selectivity ratio of IC50 for inhibition of FITC-geldanamycin binding to N-terminal GRP94 (unknown origin) to IC50 for inhibition of FITC-geldanamycin binding to N-terminal HSP90alpha (unknown origin); settings: not given

| SMILES | Ratio IC50 |
| --- | --- |
| Cc1ncc2c(n1)CCN(C(=O)c1cc(C(C)C)c(O)cc1O)C2 | 9.4 |
| CCCNc1nc(OCCOC)nc2c1CN(C(=O)c1cc(C(C)C)c(O)cc1O)CC2 | 24.9 |
| COc1ncc2c(n1)CCN(C(=O)c1cc(C(C)C)c(O)cc1O)C2 | 6.6 |
| CC(C)c1cc(C(=O)N2CCc3nc(OCCN(C)C)ncc3C2)c(O)cc1O | 9.7 |
| COCCOc1nc2c(c(OC(C)C)n1)CN(C(=O)c1cc(C(C)C)c(O)cc1O)CC2 | 22.7 |
| COCCOc1nc2c(c(OC)n1)CN(C(=O)c1cc(C(C)C)c(O)cc1O)CC2 | 7.7 |
| Cc1ncc2c(n1)CN(C(=O)c1cc(C(C)C)c(O)cc1O)C2 | 1.3 |
| CC(C)Oc1ncc2c(n1)CCN(C(=O)c1cc(C(C)C)c(O)cc1O)C2 | 8 |
| CNc1nc(OCCOC)nc2c1CN(C(=O)c1cc(C(C)C)c(O)cc1O)CC2 | 11.5 |
| CC(C)COc1ncc2c(n1)CCN(C(=O)c1cc(C(C)C)c(O)cc1O)C2 | 10.9 |

molecular target: Endoplasmin (Homo sapiens, UniProt P14625); assay: Displacement of FITC-geldanamycin from N-terminal GRP94 (unknown origin) after 30 mins by fluorescence polarization competitive binding assay; settings: not given
Sequence (P14625 whole entry): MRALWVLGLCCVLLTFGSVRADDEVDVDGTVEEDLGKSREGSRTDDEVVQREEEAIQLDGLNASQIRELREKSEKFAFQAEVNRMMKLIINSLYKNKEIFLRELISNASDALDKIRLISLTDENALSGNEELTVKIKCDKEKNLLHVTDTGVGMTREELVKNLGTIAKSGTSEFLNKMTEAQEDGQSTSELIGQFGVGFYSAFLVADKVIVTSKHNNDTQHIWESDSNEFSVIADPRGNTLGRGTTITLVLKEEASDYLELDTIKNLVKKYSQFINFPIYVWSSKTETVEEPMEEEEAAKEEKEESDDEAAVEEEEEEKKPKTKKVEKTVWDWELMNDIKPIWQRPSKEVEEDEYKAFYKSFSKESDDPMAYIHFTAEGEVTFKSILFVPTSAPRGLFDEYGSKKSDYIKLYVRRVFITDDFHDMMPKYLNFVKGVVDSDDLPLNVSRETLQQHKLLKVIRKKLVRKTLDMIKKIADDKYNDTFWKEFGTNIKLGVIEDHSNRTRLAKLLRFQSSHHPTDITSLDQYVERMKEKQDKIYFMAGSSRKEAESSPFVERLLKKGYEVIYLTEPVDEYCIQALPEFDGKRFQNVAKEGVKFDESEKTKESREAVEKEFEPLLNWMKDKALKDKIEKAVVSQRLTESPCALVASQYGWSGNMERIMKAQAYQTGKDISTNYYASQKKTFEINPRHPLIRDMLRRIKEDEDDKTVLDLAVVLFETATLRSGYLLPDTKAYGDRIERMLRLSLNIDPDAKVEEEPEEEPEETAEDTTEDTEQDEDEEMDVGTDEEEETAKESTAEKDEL

| SMILES | IC50 |
| --- | --- |
| Cc1ncc2c(n1)CCN(C(=O)c1cc(C(C)C)c(O)cc1O)C2 | 245 nM |
| CCCNc1nc(OCCOC)nc2c1CN(C(=O)c1cc(C(C)C)c(O)cc1O)CC2 | 796 nM |
| COc1ncc2c(n1)CCN(C(=O)c1cc(C(C)C)c(O)cc1O)C2 | 498 nM |
| CC(C)c1cc(C(=O)N2CCc3nc(OCCN(C)C)ncc3C2)c(O)cc1O | 290 nM |
| COCCOc1nc2c(c(OC(C)C)n1)CN(C(=O)c1cc(C(C)C)c(O)cc1O)CC2 | 1320 nM |
| COCCOc1nc2c(c(OC)n1)CN(C(=O)c1cc(C(C)C)c(O)cc1O)CC2 | 232 nM |
| Cc1ncc2c(n1)CN(C(=O)c1cc(C(C)C)c(O)cc1O)C2 | 50 nM |
| CC(C)Oc1ncc2c(n1)CCN(C(=O)c1cc(C(C)C)c(O)cc1O)C2 | 518 nM |
| CNc1nc(OCCOC)nc2c1CN(C(=O)c1cc(C(C)C)c(O)cc1O)CC2 | 196 nM |
| CC(C)COc1ncc2c(n1)CCN(C(=O)c1cc(C(C)C)c(O)cc1O)C2 | 706 nM |

system: HCT-116; assay: cells; settings: Homo sapiens, HCT-116, 72 h
Description: Antiproliferative activity against human HCT-116 cells assessed as reduction in cell viability incubated for 72 hrs by MTT assay

| SMILES | IC50 |
| --- | --- |
| Cc1ncc2c(n1)CCN(C(=O)c1cc(C(C)C)c(O)cc1O)C2 | 1150 nM |
| CCCNc1nc(OCCOC)nc2c1CN(C(=O)c1cc(C(C)C)c(O)cc1O)CC2 | 400 nM |
| COc1ncc2c(n1)CCN(C(=O)c1cc(C(C)C)c(O)cc1O)C2 | 1160 nM |
| CC(C)c1cc(C(=O)N2CCc3nc(OCCN(C)C)ncc3C2)c(O)cc1O | 2380 nM |
| Cc1ncc2c(n1)CN(C(=O)c1cc(Br)c(O)cc1O)C2 | 1550 nM |
| COCCOc1nc2c(c(OC(C)C)n1)CN(C(=O)c1cc(C(C)C)c(O)cc1O)CC2 | 740 nM |
| CC(C)c1cc(C(=O)N2CCc3nc(OC4CCN(C)CC4)ncc3C2)c(O)cc1O | 1700 nM |
| CC(C)c1cc(C(=O)N2CCc3nc(OCCN4CCOCC4)ncc3C2)c(O)cc1O | 1060 nM |
| CC(=O)N1CCN(c2ncc3c(n2)CCN(C(=O)c2cc(C(C)C)c(O)cc2O)C3)CC1 | 1600 nM |
| COCCOc1nc2c(c(OC)n1)CN(C(=O)c1cc(C(C)C)c(O)cc1O)CC2 | 250 nM |
| CC(C)c1cc(C(=O)N2CCc3nc(OCCN4CCCCC4)ncc3C2)c(O)cc1O | 780 nM |
| Cc1ncc2c(n1)CN(C(=O)c1cc(C(C)C)c(O)cc1O)C2 | 1630 nM |
| CC(C)c1cc(C(=O)N2CCc3nc(N(C)C)ncc3C2)c(O)cc1O | 1020 nM |
| CC(C)Oc1ncc2c(n1)CCN(C(=O)c1cc(C(C)C)c(O)cc1O)C2 | 1240 nM |
| CC(C)c1cc(C(=O)N2CCc3nc(N4CCCC4)ncc3C2)c(O)cc1O | 1140 nM |
| Cc1ncc2c(n1)CN(C(=O)c1cc(Cl)c(O)cc1O)C2 | 10700 nM |
| CNc1nc(OCCOC)nc2c1CN(C(=O)c1cc(C(C)C)c(O)cc1O)CC2 | 270 nM |
| CC(C)COc1ncc2c(n1)CCN(C(=O)c1cc(C(C)C)c(O)cc1O)C2 | 1230 nM |
| CCCNc1ncc2c(n1)CCN(C(=O)c1cc(C(C)C)c(O)cc1O)C2 | 2340 nM |

system: MCF7; assay: cells; settings: Homo sapiens, MCF7, 72 h

| SMILES | IC50 |
| --- | --- |
| Cc1ncc2c(n1)CCN(C(=O)c1cc(C(C)C)c(O)cc1O)C2 | 1480 nM |
| CCCNc1nc(OCCOC)nc2c1CN(C(=O)c1cc(C(C)C)c(O)cc1O)CC2 | 350 nM |
| COc1ncc2c(n1)CCN(C(=O)c1cc(C(C)C)c(O)cc1O)C2 | 630 nM |
| CC(C)c1cc(C(=O)N2CCc3nc(OCCN(C)C)ncc3C2)c(O)cc1O | 1580 nM |
| Cc1ncc2c(n1)CN(C(=O)c1cc(Br)c(O)cc1O)C2 | 3720 nM |
| COCCOc1nc2c(c(OC(C)C)n1)CN(C(=O)c1cc(C(C)C)c(O)cc1O)CC2 | 250 nM |
| CC(C)c1cc(C(=O)N2CCc3nc(OC4CCN(C)CC4)ncc3C2)c(O)cc1O | 1790 nM |
| CC(C)c1cc(C(=O)N2CCc3nc(OCCN4CCOCC4)ncc3C2)c(O)cc1O | 1230 nM |
| CC(=O)N1CCN(c2ncc3c(n2)CCN(C(=O)c2cc(C(C)C)c(O)cc2O)C3)CC1 | 3620 nM |
| COCCOc1nc2c(c(OC)n1)CN(C(=O)c1cc(C(C)C)c(O)cc1O)CC2 | 140 nM |
| CC(C)c1cc(C(=O)N2CCc3nc(OCCN4CCCCC4)ncc3C2)c(O)cc1O | 2330 nM |
| Cc1ncc2c(n1)CN(C(=O)c1cc(C(C)C)c(O)cc1O)C2 | 2140 nM |
| CC(C)c1cc(C(=O)N2CCc3nc(N(C)C)ncc3C2)c(O)cc1O | 1390 nM |
| CC(C)Oc1ncc2c(n1)CCN(C(=O)c1cc(C(C)C)c(O)cc1O)C2 | 960 nM |
| CC(C)c1cc(C(=O)N2CCc3nc(N4CCCC4)ncc3C2)c(O)cc1O | 4550 nM |
| Cc1ncc2c(n1)CN(C(=O)c1cc(Cl)c(O)cc1O)C2 | 5480 nM |
| CNc1nc(OCCOC)nc2c1CN(C(=O)c1cc(C(C)C)c(O)cc1O)CC2 | 290 nM |
| CC(C)COc1ncc2c(n1)CCN(C(=O)c1cc(C(C)C)c(O)cc1O)C2 | 1330 nM |
| CCCNc1ncc2c(n1)CCN(C(=O)c1cc(C(C)C)c(O)cc1O)C2 | 2370 nM |

system: not listed separately; assay: Intrinsic aqueous solubility of the compound; type: physicochemical; settings: not given

| SMILES | solubility |
| --- | --- |
| CCCNc1nc(OCCOC)nc2c1CN(C(=O)c1cc(C(C)C)c(O)cc1O)CC2 | 114 µg/mL (≈ 257 µM) |
| CC(C)c1cc(C(=O)N2CCc3nc(OCCN(C)C)ncc3C2)c(O)cc1O | 148 µg/mL (≈ 370 µM) |
| COCCOc1nc2c(c(OC(C)C)n1)CN(C(=O)c1cc(C(C)C)c(O)cc1O)CC2 | 40.2 µg/mL (≈ 90.2 µM) |
| CC(C)c1cc(C(=O)N2CCc3nc(OCCN4CCOCC4)ncc3C2)c(O)cc1O | 140 µg/mL (≈ 316 µM) |
| COCCOc1nc2c(c(OC)n1)CN(C(=O)c1cc(C(C)C)c(O)cc1O)CC2 | 93.5 µg/mL (≈ 224 µM) |
| CC(C)c1cc(C(=O)N2CCc3nc(OCCN4CCCCC4)ncc3C2)c(O)cc1O | 175 µg/mL (≈ 396 µM) |
| CNc1nc(OCCOC)nc2c1CN(C(=O)c1cc(C(C)C)c(O)cc1O)CC2 | 178 µg/mL (≈ 427 µM) |

system: not listed separately; assay: Permeability of the compound at pH 7.4 by PAMPA; type: ADME; settings: read-out: permeability

| SMILES | Papp |
| --- | --- |
| Cc1ncc2c(n1)CCN(C(=O)c1cc(C(C)C)c(O)cc1O)C2 | 33.3 ×10⁻⁶ cm/s |
| CCCNc1nc(OCCOC)nc2c1CN(C(=O)c1cc(C(C)C)c(O)cc1O)CC2 | 78.7 ×10⁻⁶ cm/s |
| CC(C)c1cc(C(=O)N2CCc3nc(OCCN(C)C)ncc3C2)c(O)cc1O | 3.25 ×10⁻⁶ cm/s |
| COCCOc1nc2c(c(OC(C)C)n1)CN(C(=O)c1cc(C(C)C)c(O)cc1O)CC2 | 79.4 ×10⁻⁶ cm/s |
| CC(C)c1cc(C(=O)N2CCc3nc(OCCN4CCOCC4)ncc3C2)c(O)cc1O | 30.2 ×10⁻⁶ cm/s |
| COCCOc1nc2c(c(OC)n1)CN(C(=O)c1cc(C(C)C)c(O)cc1O)CC2 | 75.8 ×10⁻⁶ cm/s |
| CC(C)c1cc(C(=O)N2CCc3nc(OCCN4CCCCC4)ncc3C2)c(O)cc1O | 20.5 ×10⁻⁶ cm/s |
| Cc1ncc2c(n1)CN(C(=O)c1cc(C(C)C)c(O)cc1O)C2 | 27 ×10⁻⁶ cm/s |
| CNc1nc(OCCOC)nc2c1CN(C(=O)c1cc(C(C)C)c(O)cc1O)CC2 | 57.5 ×10⁻⁶ cm/s |

Reference: ChEMBL document CHEMBL4706476, “Novel Tetrahydropyrido[4,3-d]pyrimidines as Potent Inhibitors of Chaperone Heat Shock Protein 90” (J Med Chem, 2016)
